Measurements: patent publication US8273769B2, “Phenoxy acetic acid derivatives” (Merck Serono SA, priority 2009, dated 2012)
pIC50: −log10 of the molar value.

What follows are compounds tested against T1, CRTH2 (Homo sapiens, UniProt Q9Y5Y4) (assay: Radioligand binding Scintillation Proximity Assay ([3H]PGD2, hCRTH2-CHO cell membranes)). Conditions: 1.5 nM [3H]PGD2, hCRTH2-CHO cell membranes, SPA.
T1 sequence (Q9Y5Y4 1-395): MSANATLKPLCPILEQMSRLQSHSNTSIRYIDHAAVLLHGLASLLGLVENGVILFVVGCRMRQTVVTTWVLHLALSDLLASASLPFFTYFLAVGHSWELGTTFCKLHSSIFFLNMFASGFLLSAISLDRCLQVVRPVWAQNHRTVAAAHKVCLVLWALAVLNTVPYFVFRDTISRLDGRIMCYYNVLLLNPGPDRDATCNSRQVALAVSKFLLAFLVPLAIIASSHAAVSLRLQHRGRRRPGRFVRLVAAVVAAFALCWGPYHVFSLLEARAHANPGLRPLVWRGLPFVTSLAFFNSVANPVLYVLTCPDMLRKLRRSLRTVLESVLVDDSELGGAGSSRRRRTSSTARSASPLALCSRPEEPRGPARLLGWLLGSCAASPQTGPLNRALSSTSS
Set-up: host or cells: CHO cells
Description: Adherent CHO cells expressing hCRTH2 (Euroscreen, Belgium) were cultured in 225 cm^2 cell culture flasks (Corning, USA) in 30 ml of medium. After two rinses of phosphate buffered saline (PBS), cells were harvested in 10 ml of PBS containing 1 mM EDTA, centrifuged at 500×g for 5 min at 4° C. and frozen at −80° C. The pellet was re-suspended in 50 mM Tris-HCl, pH 7.4, 2 mM EDTA, 250 mM Sucrose, containing protease inhibitor cocktail tablets, (Complete EDTA-free, Roche, Germany) and incubated 30 min at 4° C. Cells were disrupted by nitrogen cavitation (Parr Instruments, USA) at 4° C. (800 p.s.i. for 30 min), and centrifuged at 500×g for 10 min at 4° C. Pellet containing nuclei and cellular debris was discarded and supernatant was centrifuged 60 min at 4° C. at 45000×g. Membrane pellet was re-suspended in storage buffer (10 mM HEPES/KOH pH 7.4, 1 mM EDTA, 250 mM sucrose, protease inhibitor cocktail tablets) using Dounce homogenization and frozen in liquid nitrogen, and stored at −80° C.
The inhibitory activity can be investigated by a radioligand binding Scintillation Proximity Assay (SPA) (Sawyer et al., Br. J. Pharmocol 2002, 137, 1163-72). The SPA radioligand binding assay was performed at room temperature in binding buffer (10 mM HEPES/KOH pH 7.4, 10 mM MnCl2, with protease inhibitor cocktail tablets), containing 1.5 nM [^3H]PGD2 (Perkin Elmer), 10-50 μg/ml of hCRTH2-CHO cell membrane protein and 2 mg/ml of Wheat-germ agglutinin Sintillation Proximity Assay beads (RPNQ0001, GE-Healthcare) in a final volume of 100 μl in 96 well plates (Corning, USA). Non-specific binding was determined in the presence of 10 μM PGD2 (Cayman, USA). Competing Compounds of Formula (I) were diluted in dimethylsulphoxide so that the total volume of dimethylsulfoxide was kept constant at 1% dimethylsulphoxide (Me2SO). Serial dilutions of 100 μM to 100 pM were prepared and 10 μl each of the compounds of Formula (I) stock solutions were added to the binding assay reagents and incubated for 90 min with agitation at room temperature. Binding activity was determined by using a 1450 Micro-beta scintillation counter (Wallac, UK).

`O=C(O)COc1ccc(Cl)cc1C#Cc1ccccc1` [Example 1, [4-chloro-2-(phenylethynyl)phenoxy]acetic acid] and `O=C(O)COc1ccc(Cl)cc1C#Cc1ccccc1F` [Example 5, {4-chloro-2-[(2-fluorophenyl)ethynyl]phenoxy}acetic acid] are within 0.2 log units of each other in pIC50: 7.12 for the first, 7.25 for the second.

Compared with `O=C(O)COc1ccc(Cl)cc1C#Cc1ccc(Cl)cc1` [Example 2, {4-chloro-2-[(4-chlorophenyl)ethynyl]phenoxy}acetic acid], `O=C(O)COc1ccc(Cl)cc1C#Cc1ccncc1` [Example 12, [4-chloro-2-(pyridin-4-ylethynyl)phenoxy]acetic acid] is 0.95 log units lower in pIC50: 7.04 for the first, 6.09 for the second. The first is the more potent here.

First: COc1ccccc1C#Cc1cc(Cl)ccc1OCC(=O)O [Example 6, {4-chloro-2-[(2-methoxyphenyl)ethynyl]phenoxy}acetic acid]
Second: O=C(O)COc1ccc(Cl)cc1C#Cc1ccccc1C(F)(F)F [Example 9, (4-chloro-2-{[2-(trifluoromethyl)phenyl]ethynyl}phenoxy)acetic acid]
The pIC50 of the first is 0.88 log units lower: 6.64 for the first, 7.52 for the second. The second is the more potent here.

Going from `O=C(O)COc1ccc(Cl)cc1C#Cc1cccc(C(F)(F)F)c1` [Example 7, (4-chloro-2-{[3-(trifluoromethyl)phenyl]ethynyl}phenoxy)acetic acid] to `O=C(O)COc1ccc(C(F)(F)F)cc1C#Cc1ccccc1Cl` [Example 41, [2-[(2-chlorophenyl)ethynyl]-4-(trifluoromethyl)phenoxy]acetic acid], the pIC50 rises from 6.95 to 7.82 (0.87 log units). The second is the more potent here.

Going from `O=C(O)COc1ccc(Cl)cc1C#Cc1ccc(F)cc1F` [Example 8, {4-chloro-2-[(2,4-difluorophenyl)ethynyl]phenoxy}acetic acid] to `COCc1ccc(C#Cc2cc(Cl)ccc2OCC(=O)O)c(F)c1` [Example 34, (4-chloro-2-{[2-fluoro-4-(methoxymethyl)phenyl]ethynyl}phenoxy)acetic acid], the pIC50 rises from 6.91 to 7.59 (0.68 log units). The second is the more potent here.

`O=C(O)COc1ccc(Cl)cc1C#Cc1ccc(Cl)s1` [Example 10, {4-chloro-2-[(5-chloro-2-thienyl)ethynyl]phenoxy}acetic acid] and `Cc1ncccc1C#Cc1cc(Cl)ccc1OCC(=O)O` [Example 22, {4-chloro-2-[(2-methylpyridin-3-yl)ethynyl]phenoxy}acetic acid] are within 0.2 log units of each other in pIC50: 6.57 for the first, 6.76 for the second.

`Cn1ccnc1C#Cc1cc(Cl)ccc1OCC(=O)O` [Example 11, {4-chloro-2-[(1-methyl-1H-imidazol-2-yl)ethynyl]phenoxy}acetic acid] and `O=C(O)COc1ccc(Cl)cc1C#Cc1ccccn1` [Example 13, [4-chloro-2-(pyridin-2-ylethynyl)phenoxy]acetic acid] are within 0.2 log units of each other in pIC50: 5.75 for the first, 5.84 for the second.

Going from `O=C(O)COc1ccc(Cl)cc1C#Cc1cccnc1` [Example 14, [4-chloro-2-(pyridin-3-ylethynyl)phenoxy]acetic acid] to `CS(=O)(=O)c1cccc(C#Cc2cc(Cl)ccc2OCC(=O)O)c1` [Example 18, (4-chloro-2-{[3-(methylsulfonyl)phenyl]ethynyl}phenoxy)acetic acid], the pIC50 rises from 6.84 to 7.72 (0.88 log units).

Going from `CCNS(=O)(=O)c1ccc(C)c(C#Cc2cc(Cl)ccc2OCC(=O)O)c1` [Example 16, [4-chloro-2-({5-[(ethylamino)sulfonyl]-2-methylphenyl}ethynyl)phenoxy]acetic acid] to `CCS(=O)(=O)c1ccc(C)c(C#Cc2cc(Cl)ccc2OCC(=O)O)c1` [Example 50, (4-chloro-2-{[5-(ethylsulfonyl)-2-methylphenyl]ethynyl}phenoxy)acetic acid], the pIC50 falls from 8.22 to 7.96 (0.26 log units).

`O=C(O)COc1ccc(Cl)cc1C#Cc1cccc(S(=O)(=O)CCCO)c1` [Example 19, [4-chloro-2-({3-[(3-hydroxypropyl)sulfonyl]phenyl}ethynyl)phenoxy]acetic acid] and `Cc1ccc(S(=O)(=O)CCO)cc1C#Cc1cc(Cl)ccc1OCC(=O)O` [Example 52, [4-chloro-2-({5-[(2-hydroxyethyl)sulfonyl]-2-methylphenyl}ethynyl)phenoxy]acetic acid] are within 0.2 log units of each other in pIC50: 7.44 for the first, 7.60 for the second.

Going from `N#Cc1ccc(F)c(C#Cc2cc(Cl)ccc2OCC(=O)O)c1` [Example 21, {4-chloro-2-[(5-cyano-2-fluorophenyl)ethynyl]phenoxy}acetic acid] to `O=C(O)COc1ccc(Cl)cc1C#Cc1cc(CO)ccc1F` [Example 25, (4-chloro-2-{[2-fluoro-5-(hydroxymethyl)phenyl]ethynyl}phenoxy)acetic acid], the pIC50 falls from 7.34 to 7.05 (0.29 log units).

Going from `N#Cc1ccc(OCC(=O)O)c(C#Cc2ccccc2Cl)c1` [Example 23, {2-[(2-chlorophenyl)ethynyl]-4-cyanophenoxy}acetic acid] to `Cc1ccc(OCC(=O)O)c(C#Cc2ccccc2Cl)c1` [Example 27, {2-[(2-chlorophenyl)ethynyl]-4-methylphenoxy}acetic acid], the pIC50 falls from 7.52 to 6.46 (1.06 log units). The first is the more potent here.

Compared with `Cc1nc(C)c(C#Cc2cc(Cl)ccc2OCC(=O)O)s1` [Example 24, {4-chloro-2-[(2,4-dimethyl-1,3-thiazol-5-yl)ethynyl]phenoxy}acetic acid], `Cc1cc[n+]([O-])cc1C#Cc1cc(Cl)ccc1OCC(=O)O` [Example 31, {4-chloro-2-[(4-methyl-1-oxidopyridin-3-yl)ethynyl]phenoxy}acetic acid] is 0.73 log units higher in pIC50: 6.99 for the first, 7.72 for the second.

Going from `O=C(O)COc1ccc(Cl)cc1C#Cc1cccc(CO)c1F` [Example 28, (4-chloro-2-{[2-fluoro-3-(hydroxymethyl)phenyl]ethynyl}phenoxy)acetic acid] to `COCc1ccc(F)c(C#Cc2cc(Cl)ccc2OCC(=O)O)c1` [Example 30, (4-chloro-2-{[2-fluoro-5-(methoxymethyl)phenyl]ethynyl}phenoxy)acetic acid], the pIC50 falls from 7.32 to 7.07 (0.25 log units). The first is the more potent here.

`CCCCCCc1ccncc1C#Cc1cc(Cl)ccc1OCC(=O)O` [Example 29, {4-chloro-2-[(4-hexylpyridin-3-yl)ethynyl]phenoxy}acetic acid] and `CS(=O)(=O)c1cncc(C#Cc2cc(Cl)ccc2OCC(=O)O)c1` [Example 36, (4-chloro-2-{[5-(methylsulfonyl)pyridin-3-yl]ethynyl}phenoxy)acetic acid] are within 0.2 log units of each other in pIC50: 7.29 for the first, 7.12 for the second.

Going from `O=C(O)COc1cc(F)ccc1C#Cc1ccccc1Cl` [Example 37, {2-[(2-chlorophenyl)ethynyl]-5-fluorophenoxy}acetic acid] to `O=C(O)COc1ccccc1C#Cc1ccccc1Cl` [Example 45, {2-[(2-chlorophenyl)ethynyl]phenoxy}acetic acid], the pIC50 rises from 5.23 to 6.02 (0.79 log units). The second is the more potent here.

Going from `CS(=O)(=O)Nc1cncc(C#Cc2cc(Cl)ccc2OCC(=O)O)c1` [Example 39, [4-chloro-2-({5-[(methylsulfonyl)amino]pyridin-3-yl}ethynyl)phenoxy]acetic acid] to `CN(c1cncc(C#Cc2cc(Cl)ccc2OCC(=O)O)c1)S(C)(=O)=O` [Example 47, [4-chloro-2-({5-[methyl(methylsulfonyl)amino]pyridin-3-yl}ethynyl)phenoxy]acetic acid], the pIC50 falls from 7.64 to 6.47 (1.17 log units). The first is the more potent here.

`O=C(O)COc1ccc(Cl)cc1C#Cc1cncc(S(=O)(=O)NCCO)c1` [Example 46, {4-chloro-2-[(5-{[(2-hydroxyethyl)amino]sulfonyl}pyridin-3-yl)ethynyl]phenoxy}acetic acid] and `CS(=O)(=O)c1ccc(O)c(C#Cc2cc(Cl)ccc2OCC(=O)O)c1` [Example 60, (4-chloro-2-{[2-hydroxy-5-(methylsulfonyl)phenyl]ethynyl}phenoxy)acetic acid] are within 0.2 log units of each other in pIC50: 6.49 for the first, 6.53 for the second.

`Cc1ccc(S(=O)(=O)C(C)C)cc1C#Cc1cc(Cl)ccc1OCC(=O)O` [Example 51, (4-chloro-2-{[5-(isopropylsulfonyl)-2-methylphenyl]ethynyl}phenoxy)acetic acid] and `CS(=O)(=O)c1ccc(Cl)c(C#Cc2cc(C#N)ccc2OCC(=O)O)c1` [Example 61, (2-{[2-chloro-5-(methylsulfonyl)phenyl]ethynyl}-4-cyanophenoxy)acetic acid] are the same in pIC50: 8.10 for the first, 8.10 for the second.

In the case of `CS(=O)(=O)c1ccc(N2CCCCC2)c(C#Cc2cc(Cl)ccc2OCC(=O)O)c1` [Example 57, (4-chloro-2-{[5-(methylsulfonyl)-2-piperidin-1-ylphenyl]ethynyl}phenoxy)acetic acid], the pIC50 was 6.55.
